Data set [1] deals with HEI-OC1 cells. Briefly: Cellular internalization study of C6-cHy-NPs with pathway inhibitors and over time. The settings on record: 40 μg/mL inhibitor, 1 h pre-incubation. Type of data set: cell-based. As to the method:
First, blank cHy-NPs (cHy-NPs, without FL or HK encapsulation) were prepared as described below. In, 1 mL colloidal solution of cHy-NPs, 1 mg coumarin-6 (C-6) was added and the mixture was stirred at 200 rpm overnight at room temperature. The NP solution was then centrifuged at 2000 rpm for 5 min to remove unloaded C-6. The supernatant containing C-6-cHy-NPs was transferred to a fresh microcentrifuge tube. The HEI-OC1 (House Ear Institute-Organ of Corti 1) cells were seeded in 96 well plate (10000 cells per well) overnight. After washing with fresh growth media, the media (100 μL) containing 40 μg/mL CPZ, MβCD, GNT, or AML was added to separate columns (2 columns kept untreated as a control group). After 1 h of incubation at 33° C. (5% CO2), 2.5 μL of C6-cHy-NPs (10× diluted with media) were added to each well. The plate was incubated for 4 h and the cells were washed using PBS. After adding fresh PBS, the fluorescence intensity of each well was recorded using a multi-well plate fluorescence spectrophotometer (Synergy 2, BioTek, USA) at λex/em 460/505. In another experiment to confirm the effect of various inhibitors, the cells (20000 per well) were seeded overnight, and incubated with different concentrations (0, 2.5, 5, 10, 20, 30, 40, 50, and 75 μg/mL) of MβCD, GNT, or AML. After treatment, incubation, and washing, the fluorescence intensity of each well was recorded as described above. Furthermore, to study the time of cellular internalization the cells (20000 per well) were treated with C-6-cHy-NPs (5 μL, 10× diluted), and the fluorescence of the samples was recorded after washing at different time intervals (0.25, 0.5, 1, 2, 3, 4, 5, 6, 8, 10, 24, and 48 h) of incubation. For microscopy analysis, the cells were seeded in a 6 well plate (1×10^5 cells/well) and incubated overnight. The next day, cells were washed and in each well media containing C-6-cHy-NPs was added. At different time intervals (0.5, 1, 2, 3, 4, and 5 h), the cells of a well were washed using PBS and analyzed under the fluorescence microscope using a 20× lens (Revolve, Discover Echo Inc., San Diego, CA, USA) at λex 460 nm. Counterstain Hoechst 33342 (1 μg/mL, 10 min incubation in the dark, λex 350 nm) was used.

For data set [2], the system named is caspase 3/7. The data set is described as follows: Caspase 3/7 activation in CisPt-exposed cells (FLICA, fluorescence microscopy), Example 1. Type of data set: cell-based. The settings on record: CisPt-exposed HEI-OC1 cells. As for the experimental part:
Novel dual stimuli-responsive nanoformulations have been investigated for the synthesis of ROS-responsive polymers, and thermo-responsive polymers and their characterization using ^1H NMR. Drug loaded NCs comprising BUC and/or DLT in micelles of PPS-mPEG2000 were prepared by nanoprecipitation methods. The BUC-PPS-mPEG2000-NCs and DLT-PPS-mPEG2000-NCs were characterized using DLS and NTA and TEM images. The EE % and DL % of NCs were determined using HPLC and Ellman's assays. The long-term storage stability over two months was checked by using DLS for size and PDI. In vitro assessments were performed on the HEIOC1 cell lines for MTT and Live-dead cell assays for biocompatibility and cellular uptake analysis, respectively. The cytoprotective effect of BUC-NCs, DLT-NCs and BUC/DLT-PPS-mPEG2000-NCs, were studied after treating with various regimens and different concentration with and without cisplatin. The ROS-Scavenging effect nanoformulation was confirmed by the DCFH-DA assay, and FLICA assays. The final formulation, named NanoSensoGel, comprising a combination of a thermo-responsive P407 hydrogel, and the ROS-responsive BUC/DLT loaded PPS-mPEG2000-NCs, was characterized for its bio-responsiveness, a novel method was established to perform the in vitro drug release, and release kinetics mechanism were studied for dual drug release.

Data set [3] can be described thus: In vitro drug release kinetics from thermoresponsive hydrogel (Korsmeyer-Peppas model). Type of data set: physicochemical. The settings on record: PBS pH 7.4; for release from the hydrogel: in 48 h at 25° C.; for maximum release from the hydrogel: in one month at 37° C. As to the method: Two 24 well plates were taken equipped with 6.5 mm inserts (Transwell®, Costar, Corning, NY, USA) having 8 µm pores polycarbonate support membrane six in each plate. The developed hydrogel formulations containing FL-cHy-NPs and HK-cHy-NPs were filled in the inserts (n=3, in each plate and each formulation). One plate was placed at 37° C. while the other one was kept at 25° C. After 30 min, the receiver media (1 mL, PBS pH 7.4) was filled in each well-containing insert. Other wells were filled with deionized water to maintain humidity in the plate. […] The drug content (FL and HK) was extracted using DCM; solvent-solvent extraction. After evaporating the DCM, the extracted FL and HK content was dissolved in methanol (100 μL, 100% LC-MS grade). The drug quantification of FL and HK in each sample was done using HPLC using the same procedure described above. The release kinetics of FL and HK from both hydrogels were calculated using the Korsmeyer-Peppas model (eq 7). where, Mt is the mass of the drug released at time t; […]

A further data set deals with neuromast hair cells. The data set is described as follows: Otoprotection studies on zebrafish (cisplatin ototoxicity). Type of data set: in vivo. The settings on record: 5-6 dpf fish; 33, 17, 2 mM alone or 17+17, 8.5+8.5, 3+3 mM; cisplatin 400 mM, 6 hours.
Data set [4] concerns caspase 3/7. The data set is described as follows: Caspase 3/7 apoptosis assay. In kind it is cell-based. The settings on record: HEI-OC1. As for the experimental part: (§1) The HEI-OC1 Cells (10000 cells/well in 96-well plates) were treated with various treatment groups as described above in the cell cytotoxicity study section. The endpoints for ROS generation, apoptosis, and necrosis studies were set up at 24, 36, and 48 h, respectively. For ROS generation study, the cells were washed two times with fresh media and then culture media containing DCFH2DA reagent (10 μM) was added to each well. After 30 min incubation in dark at 33° C. (5% CO2) the cells were washed with PBS three times. Fresh PBS (100 μL) was added and the fluorescence was recorded at λex/em 480/530 nm using a multi-well plate fluorescence spectrophotometer (Synergy 2, BioTek, USA). […] After washing, the fluorescence was recorded at λex/em 480/530 nm using a multi-well plate fluorescence spectrophotometer (Synergy 2, BioTek, USA). […] After 15 min incubation in dark, the fluorescence was recorded at λex/em 530/615 nm using a multi-well plate fluorescence spectrophotometer (Synergy 2, BioTek, USA). The fluorescence microscopy analysis of ROS generation, apoptosis, and necrosis experiments was performed. […] The cells were observed under the fluorescence microscope using a 20× lens at the respective dye fluorescence filter as described above. For HOECHST-33342 λex/em 350/460 nm fluorescence filter was used.

For data set [5], the system named is HEI-OC1 cells. The data set is described as follows: Intracellular ROS generation (DCFH2-DA). Type of data set: cell-based. As for the experimental part: as §1
Data set [6] relates to HEI-OC1 cells. Briefly: MitoSOX mitochondrial superoxide assay. In kind it is cell-based. Particulars: MitoSOX fluorescence.
Data set [7] deals with HEI-OC1 cells. Briefly: PI staining necrosis / cell death assay. In kind it is cell-based. Particulars: 48 h; pre-treatment then CisPt; CisPt row is CisPt only. As for the experimental part:
as §1

Protocol for neuromast hair cells: Fish were maintained at 28.5° C. in E3 media with a 14-hour light/10-hour dark cycle. Otoprotection studies were performed in 5-6 dpf wild type (TuAB) fish as previously described [2]. Briefly, fish were pre-incubated for one hour in E3 media containing FL, HK or FL+HK and then co-incubated for 6 hours with the corresponding cytoprotective molecules and clinical cisplatin 400 mM. Concentrations were as follow: FL or HK=33 mM, 17 mM and 2 mM; FL+HK=17+17 mM, 8.5+8.5 mM and 3+3 mM. Fish were also incubated with empty NPs as control. After the treatment, fish were transferred to fresh E3 media for one hour to recover, followed by fixation (4% PFA) and processing for confocal imaging. For the detection of neuromast hair cells, fish were immunostained for the hair cell marker, otoferlin (HCS-1, DSHB, 1:200 dilution). Hair cells were manually counted using a Zeiss AxioSkop 2 fluorescence microscope. The neuromasts inspected were part of the cranial system and included the otic, middle, and opercular neuromasts. Ten to twelve fish were used per treatment. Confocal imaging was performed using a Zeiss LSM 700 confocal laser scanning image system. Images were captured at room temperature with automatically set sectioning and processed with ZEN black edition software. Z-stacks are presented as flat Z-projections.

Regarding `N=C(N)NC(=O)c1nc(Cl)c(N)nc1N` [AML, Amiloride], the “effect of pathway inhibitor pretreatment on cellular internalization of C6-cHy-NPs” value (from here on “effect of pathway inhibitor pretreatment”) in the data set with HEI-OC1 cells [1] is given as “no significant change in the cellular internalization”.
Regarding `CC(C)(S)C(=O)N[C@@H](CS)C(=O)O` [BUC, bucillamine], the “inhibition of caspase 3/7 activation” value with caspase 3/7 [2] is reported as “highly responsible for the inhibition of the caspase 3/7 activation”.
As for `CN(C)CCCN1c2ccccc2Sc2ccc(Cl)cc21` [CPZ, Chlorpromazine], the “effect of pathway inhibitor pretreatment” value with HEI-OC1 cells [1] is reported as “significantly reduced cellular internalization”.
`Fc1ccc(C(c2ccc(F)cc2)N2CCN(C/C=C/c3ccccc3)CC2)cc1` [FL, Flunarizine]: in data set [3], the “release from the hydrogel” value was approximately 60% and the “maximum release from the hydrogel” value was approximately 50%. In addition, the “protection of neuromast hair cells against cisplatin-induced ototoxicity” value in the data set on neuromast hair cells is recorded as “prevented hair cell loss”.
With `O=c1c(-c2ccc(O)cc2)coc2cc(O)cc(O)c12` [GNT, Genistein], in the data set on HEI-OC1 cells [1], the “effect of pathway inhibitor pretreatment” value is listed as “no significant change in the cellular internalization”.
In the case of `C=CCc1ccc(O)c(-c2ccc(O)c(CC=C)c2)c1` [HK, Honokiol], in data set [3], the “release from the hydrogel” value is given as approximately 60% and the “maximum release from the hydrogel” value was approximately 50%. Moreover, the “protection of neuromast hair cells against cisplatin-induced ototoxicity” value with neuromast hair cells was “prevented hair cell loss”.
On to `O=S([O-])([O-])=S.[Na+].[Na+]` [STS, Sodium thiosulphate], for which the “caspase 3/7 activation compared to CisPt only treated cells” value with caspase 3/7 [4] was “significantly reduced signals of caspase 3/7 activation”. In the data set with HEI-OC1 cells [5] (24 h post CisPt addition), the “ROS generation compared to CisPt-only treated cells” value is given as “did not show a significant ROS generation”. In addition, the “ratio of normalized intensities of total cells and DCF-stained cells” value in the data set on HEI-OC1 cells [5] (fluorescence microscopy, pre-treatment then CisPt, CisPt row is CisPt only) was 1.53±0.23. Also, the “mitochondrial superoxide compared to CisPt-only treated cells” value in the data set on HEI-OC1 cells [6] is reported as “significantly reduced mitochondrial superoxide”. Moreover, the “ratio of normalized intensities of total cells and PI-stained cells” value with HEI-OC1 cells [7] came to 2.03±0.02.
With methyl-β-cyclodextrin [MβCD], in the data set with HEI-OC1 cells [1], the “effect of pathway inhibitor pretreatment” value was “no significant change in the cellular internalization”.
